Measured values published in patent US8409581B2, “Compounds for treating amyloidoses” (Affiris AG, priority 2008, dated 2013).

Legend:
[1] = system: monoclonal antibody MV-002 binding to the original epitope; assay: In vitro inhibition assay (ELISA); set-up: species or system mice; conditions: for inhibition in in vitro inhibition/competition assay: MV-002, original epitope coated on ELISA plates; for Inhibition Capacity (competition code): OD at 5 ug peptide compared to original peptide, MV-002
Experimental: 2. In Vitro Inhibition Assay (ELISA)
Different amounts of peptides (concentrations ranging from 5 μg to 0.03 μg; serial dilutions), derived from Phage Display were incubated with the monoclonal antibody that was used for the screening procedure. Peptides diminishing subsequent binding of the antibody to the original epitope coated on ELISA plates were considered as inhibiting in this assay.

original epitope p4377 = assay: Mimotope vaccination of mice, serum titer ELISA against original epitope; format: in vivo, C57/B16 mice; conditions: 30 μg peptide-KLH, alum, s.c., FIG. 5
Experimental: (§1) Inhibiting as well as non-inhibiting peptides were coupled to KLH and injected into mice (wildtype C57/B16 mice; subcutaneous injection into the flank) together with an appropriate adjuvant (aluminium hydroxide). Animals were vaccinated 3-6 times in biweekly intervals and sera were taken biweekly as well. Titers to injected peptides, as well as to an irrelevant peptide were determined with every serum. Furthermore, titers against the recombinant human Aβ protein, and against original peptides were determined respectively. In general sera were analysed by reaction against peptides coupled to Bovine Serum Albumin (BSA) and recombinant full length proteins which were immobilised on ELISA plates. Titers were determined using anti mouse IgG specific antibodies. For detailed results see FIGS. 4, 5 and 6 respectively.
(§2) Female C57/b16 mice, 5-6 mice per group, were subcutaneously immunized with 30 μg peptide coupled to KLH. Control groups were administered original epitope-KLH conjugates respectively. As adjuvant alum was used (always 1 mg per mouse). […] The in vitro ELISA assay to determine the antibody titer was performed with sera of single mice after each vaccination in a two week interval (see FIGS. 6 and 7 respectively). Titers were calculated as OD max/2 in all figures shown. The wells of the ELISA plate were coated with mimotope-BSA conjugate and an irrelevant peptide-BSA conjugate (negative control). The positive control was performed by reaction of the parental antibody with the respective mimotope-BSA conjugate. The detection was performed with anti-mouse IgG. Additionally, recombinant proteins were immobilised on ELISA plates and sera reacted accordingly. FIGS. 4, 5 and 6 show representative examples for assays used to characterise mimotopes in vivo.

[2] = system: monoclonal antibody MV-002; assay: In vitro binding assay (ELISA) of mimotopes to parental antibody; set-up: species or system mice; conditions: peptide coupled to BSA bound to ELISA plates (1 μM); parental antibody MV-002
Experimental: 1. In Vitro Binding Assay (ELISA)
Peptides derived from Phage Display as well as variants thereof were coupled to BSA and bound to ELISA plates (1 μM; as indicated in the respective figures) and subsequently incubated with the monoclonal antibody that was used for the screening procedure to analyse binding capacity of identified peptides.

[3] = system: p1454 (unrelated sequence); assay: Mimotope vaccination of mice, serum titer ELISA against irrelevant peptide; format: in vivo, C57/B16 mice; conditions: 30 μg peptide-KLH, alum, s.c., FIG. 4
Experimental: as §1, §2

injected peptide = assay: Mimotope vaccination of mice, serum titer ELISA against injected peptide; format: in vivo, C57/B16 mice; conditions: 30 μg peptide-KLH, alum, s.c., FIG. 4
Experimental: as §1, §2

[4] = system: amyloid plaques (Aβ40/42) in brain; assay: Area occupied by amyloid plaques in Tg2576 AD mouse model; format: in vivo; conditions: Tg2576 mice

Sequence | inhibition in in vitro inhibition/competition assay [1] | Inhibition Capacity (competition code) [1] | immune response against the original epitope p4377 (original epitope p4377) | Binding Capacity (binding code; OD halfmax 1:X, dilution factor of the parental AB) [2] | unspecific immune response against unrelated sequence (p1454) [3] | immune response against injected peptide (injected peptide) | reduction of area occupied by amyloid plaques following mimotope treatment ([4]; group 2 versus PBS-ALUM control) | average area occupied by amyloid plaques ([4]; peptide-KLH conjugate adsorbed to ALUM, s.c. 6 times at monthly intervals, mAb 3A5 staining, control 0.35%)
HMRLFFNC [p4670, MV-002 mimotope peptide] | active in in vitro inhibition assays | 1 (Weaker than original epitope (OD of peptide below 4, 6 times of original peptide)) | mounted detectable immune responses | 3 (strong binding :>320000) | failed to induce a relevant unspecific immune response | elicited immune responses |  | 
HQKMIFAC [p4675, MV-002 mimotope peptide; used as KLH conjugate vaccine in Tg2576 mice] | active in in vitro inhibition assays | 2 (strong inhibition (as original epitope; OD of peptide below 2, 3 times of original peptide)) | mounted detectable immune responses | 3 (strong binding :>320000) | failed to induce a relevant unspecific immune response | elicited immune responses | 31% | 0.24%
SHTRLYFC [p4403, MV-002 mimotope peptide] | without inhibition capacity |  | mounted detectable immune responses | 1 (weak binding :<40000) | failed to induce a relevant unspecific immune response | elicited immune responses |  | 
